How the values were obtained:
Type in all cases: in vivo
[1] = tested on: Avena fatua (AVEFA); experiment: Pre-emergence herbicidal activity, glasshouse pot test; conditions: Avena fatua, 312 h; Rate 250 g/ha; pre-emergence spray; evaluated after 13 days; read-out: Pre-emergence activity AVEFA (100=total damage to plant; 0=no damage to plant)
Procedure, shortened: (§1)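 Herbicide damage scored 0–100 at 13 d. Pre-emergence: spray 1 d after sowing; post-emergence: spray after 8 d growth. Formulation acetone/water 50:50, 0.5% Tween 20, aqueous spray.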

[2] = tested on: Alopecurus myosuroides (ALOMY); experiment: as above; conditions: Alopecurus myosuroides, 312 h; Rate 250 g/ha; pre-emergence spray; evaluated after 13 days; read-out: Pre-emergence activity ALOMY (100=total damage to plant; 0=no damage to plant)
Procedure, shortened: as §1

[3] = tested on: Lolium perenne (LOLPE); experiment: as above; conditions: Lolium perenne, 312 h; Rate 250 g/ha; pre-emergence spray; evaluated after 13 days; read-out: Pre-emergence activity LOLPE (100=total damage to plant; 0=no damage to plant)
Procedure, shortened: as §1

[4] = tested on: Echinochloa crus-galli (ECHCG); experiment: as above; conditions: Echinochloa crus-galli, 312 h; Rate 250 g/ha; pre-emergence spray; evaluated after 13 days; read-out: Pre-emergence activity ECHCG (100=total damage to plant; 0=no damage to plant)
Procedure, shortened: as §1

[5] = tested on: Avena fatua (AVEFA); experiment: Post-emergence herbicidal activity, glasshouse pot test; conditions: Avena fatua, 312 h, rate 250 g/ha, evaluated after 13 days, glasshouse, read-out: Post-emergence activity AVEFA (100=total damage to plant; 0=no damage to plant)
Procedure, shortened: as §1

[6] = tested on: Alopecurus myosuroides (ALOMY); experiment: as above; conditions: Alopecurus myosuroides, 312 h, rate 250 g/ha, evaluated after 13 days, glasshouse, read-out: Post-emergence activity ALOMY (100=total damage to plant; 0=no damage to plant)
Procedure, shortened: as §1

[7] = tested on: Lolium perenne (LOLPE); experiment: as above; conditions: Lolium perenne, 312 h, rate 250 g/ha, evaluated after 13 days, glasshouse, read-out: Post-emergence activity LOLPE (100=total damage to plant; 0=no damage to plant)
Procedure, shortened: as §1

[8] = tested on: Echinochloa crus-galli (ECHCG); experiment: as above; conditions: Echinochloa crus-galli, 312 h, rate 250 g/ha, evaluated after 13 days, glasshouse, read-out: Post-emergence activity ECHCG (100=total damage to plant; 0=no damage to plant)
Procedure, shortened: as §1

SMILES | pest or weed control at 250 g/ha [1] [%] | pest or weed control at 250 g/ha [2] [%] | pest or weed control at 250 g/ha [3] [%] | pest or weed control at 250 g/ha [4] [%] | pest or weed control at 250 g/ha [5] [%] | pest or weed control at 250 g/ha [6] [%] | pest or weed control at 250 g/ha [7] [%] | pest or weed control at 250 g/ha [8] [%]
CC1(C)OC(C)(C)C(O)=C(c2cc(Oc3ccc4cc(Cl)ccc4n3)ccc2C2CC2)C1=O [Example A-312] | 70 | 70 | 100 | 100 | 100 | 100 | 100 | 100
CCc1ccc(Oc2ccc(C#N)c(Cl)c2)cc1C1=C(O)[C@@H]2CC[C@](C)(C1=O)C2(C)C [Example A-313] | 70 | 80 | 100 | 100 | 90 | 90 | 80 | 100
CCc1ccc(Oc2ccc(C(F)(F)F)cc2Cl)cc1C1=C(O)[C@@H]2CC[C@](C)(C1=O)C2(C)C [Example A-314] | 20 | 30 | 100 | 100 | 70 | 40 | 70 | 100
CCc1ccc(Oc2ccc(C(F)(F)F)c(Cl)c2)cc1C1=C(O)[C@@H]2CC[C@](C)(C1=O)C2(C)C [Example A-315] | 60 | 80 | 100 | 100 | 80 | 40 | 90 | 90
CCc1ccc(Oc2ccc([N+](=O)[O-])c(Cl)c2)cc1C1=C(O)[C@@H]2CC[C@](C)(C1=O)C2(C)C [Example A-316] | 60 | 70 | 100 | 100 | 80 | 50 | 40 | 100
CCc1ccc(Oc2ncc(C(F)(F)F)cc2Cl)cc1C1=C(O)[C@@H]2CC[C@](C)(C1=O)C2(C)C [Example A-317] | 100 | 100 | 100 | 100 | 100 | 100 | 100 | 100
CCc1ccc(Oc2ncc(Cl)cc2Cl)cc1C1=C(O)[C@@H]2CC[C@](C)(C1=O)C2(C)C [Example A-318] | 90 | 90 | 100 | 100 | 90 | 90 | 100 | 100
CCc1ccc(Oc2nc3ccccc3s2)cc1C1=C(O)[C@@H]2CC[C@](C)(C1=O)C2(C)C [Example A-319] | 70 | 90 | 100 | 100 | 100 | 100 | 100 | 100
CCc1ccc(Oc2nc3ccc(Cl)cc3s2)cc1C1=C(O)[C@@H]2CC[C@](C)(C1=O)C2(C)C [Example A-320] | 80 | 80 | 100 | 100 | 100 | 100 | 90 | 100
CCc1ccc(Oc2ccc3ccccc3n2)cc1C1=C(O)[C@@H]2CC[C@](C)(C1=O)C2(C)C [Example A-321] | 50 | 70 | 90 | 100 | 90 | 90 | 90 | 100
CCc1ccc(Oc2nc3cc(Cl)ccc3s2)cc1C1=C(O)[C@@H]2CC[C@](C)(C1=O)C2(C)C [Example A-322] | 40 | 60 | 100 | 100 | 80 | 90 | 90 | 100
CCc1ccc(Oc2ccc(C(F)(F)F)c(C#N)c2)cc1C1=C(O)[C@@H]2CC[C@](C)(C1=O)C2(C)C [Example A-323] | 80 | 70 | 100 | 100 | 80 | 60 | 70 | 90
CCc1ccc(Oc2ncc(C(F)(F)F)cc2C(F)(F)F)cc1C1=C(O)[C@@H]2CC[C@](C)(C1=O)C2(C)C [Example A-324] | 90 | 90 | 100 | 100 | 100 | 100 | 100 | 100
CCc1ccc(Oc2nc3ccc([N+](=O)[O-])cc3s2)cc1C1=C(O)[C@@H]2CC[C@](C)(C1=O)C2(C)C [Example A-325] | 20 | 60 | 90 | 100 | 30 | 50 | 40 | 100
CCc1ccc(Oc2nc3ccc(OC)cc3s2)cc1C1=C(O)[C@@H]2CC[C@](C)(C1=O)C2(C)C [Example A-326] | 10 | 30 | 90 | 70 | 90 | 30 | 90 | 100
CCc1ccc(Oc2ccc(C(F)(F)F)cc2[N+](=O)[O-])cc1C1=C(O)[C@@H]2CC[C@](C)(C1=O)C2(C)C [Example A-327] | 20 | 70 | 90 | 100 | 90 | 80 | 70 | 100
CCc1ccc(Oc2nc3c(Cl)cc(Cl)cc3s2)cc1C1=C(O)[C@@H]2CC[C@](C)(C1=O)C2(C)C [Example A-328] | 30 | 50 | 90 | 100 | 80 | 60 | 70 | 100
CCc1ccc(Oc2ncc(Cl)cc2C(F)(F)F)cc1C1=C(O)[C@@H]2CC[C@](C)(C1=O)C2(C)C [Example A-329] | 90 | 90 | 100 | 100 | 90 | 80 | 70 | 100
CCc1ccc(Oc2ccc(C#N)c(Cl)c2)cc1C1=C(O)[C@H]2CC[C@H](C2)C1=O [Example A-330] | 80 | 80 | 100 | 100 | 80 | 70 | 70 | 100
CCc1ccc(Oc2ccc(C(F)(F)F)cc2Cl)cc1C1=C(O)[C@H]2CC[C@H](C2)C1=O [Example A-331] | 80 | 90 | 100 | 100 | 80 | 80 | 80 | 100
